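The concentration for 50% growth inhibition is given as GI50. Definition used: TGI = concentration required for complete inhibition of growth.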
Columns and labels:
Assay in all cases: DTP human tumour cell line panel, 384-well format
K-562 leukemia = tested on: K-562 leukemia
A498 renal = tested on: A498 renal
MDA-MB-468 breast = tested on: MDA-MB-468 breast
TK-10 renal = tested on: TK-10 renal
SN12C renal = tested on: SN12C renal
HCT-15 colon = tested on: HCT-15 colon
HL-60(TB) leukemia = tested on: HL-60(TB) leukemia
MOLT-4 leukemia = tested on: MOLT-4 leukemia
MALME-3M melanoma = tested on: MALME-3M melanoma
SK-MEL-5 melanoma = tested on: SK-MEL-5 melanoma
NCI/ADR-RES ovarian = tested on: NCI/ADR-RES ovarian
SK-OV-3 ovarian = tested on: SK-OV-3 ovarian
LOX IMVI melanoma = tested on: LOX IMVI melanoma
NCI-H226 lung = tested on: NCI-H226 lung
OVCAR-4 ovarian = tested on: OVCAR-4 ovarian
SK-MEL-28 melanoma = tested on: SK-MEL-28 melanoma
SW-620 colon = tested on: SW-620 colon
MDA-MB-435 melanoma = tested on: MDA-MB-435 melanoma
SF-295 CNS = tested on: SF-295 CNS
786-0 renal = tested on: 786-0 renal
HCT-116 colon = tested on: HCT-116 colon
EKVX NSCLC = tested on: EKVX NSCLC
SNB-75 CNS = tested on: SNB-75 CNS
OVCAR-3 ovarian = tested on: OVCAR-3 ovarian
DU-145 prostate = tested on: DU-145 prostate
UACC-257 melanoma = tested on: UACC-257 melanoma
A549 NSCLC = tested on: A549 NSCLC
OVCAR-5 ovarian = tested on: OVCAR-5 ovarian
HT29 colon = tested on: HT29 colon
BT-549 breast = tested on: BT-549 breast
T-47D breast = tested on: T-47D breast
CCRF-CEM leukemia = tested on: CCRF-CEM leukemia
SNB-19 CNS = tested on: SNB-19 CNS
KM12 colon = tested on: KM12 colon
U251 glioblastoma = tested on: U251 glioblastoma
NCI-H522 lung = tested on: NCI-H522 lung
PC-3 prostate = tested on: PC-3 prostate
CAKI-1 renal = tested on: CAKI-1 renal
SF-539 CNS = tested on: SF-539 CNS
IGROV1 ovarian = tested on: IGROV1 ovarian
RPMI-8226 leukemia = tested on: RPMI-8226 leukemia
NCI-H460 NSCLC = tested on: NCI-H460 NSCLC
HOP-92 NSCLC = tested on: HOP-92 NSCLC
M14 melanoma = tested on: M14 melanoma
RXF 393 renal = tested on: RXF 393 renal
UACC-62 melanoma = tested on: UACC-62 melanoma
HS 578T breast = tested on: HS 578T breast
NCI-H322M lung = tested on: NCI-H322M lung
SF-268 CNS = tested on: SF-268 CNS
MCF7 breast = tested on: MCF7 breast
OVCAR-8 ovarian = tested on: OVCAR-8 ovarian
HOP-62 NSCLC = tested on: HOP-62 NSCLC
UO-31 renal = tested on: UO-31 renal
ACHN renal = tested on: ACHN renal
HCC-2998 colon = tested on: HCC-2998 colon
NCI-H23 lung = tested on: NCI-H23 lung
MDA-MB-231 breast = tested on: MDA-MB-231 breast

O=C(NCCN1CCOCC1)Nc1nc2ccc(Sc3nnc4ccc(-c5ccc(F)cc5)nn34)cc2s1
GI50 (K-562 leukemia): 3.98 µM | TGI (K-562 leukemia): 21.2 µM | GI50 (A498 renal): 6.7 µM | TGI (A498 renal): > 100 µM | GI50 (MDA-MB-468 breast): 2.93 µM | TGI (MDA-MB-468 breast): 8.45 µM | GI50 (TK-10 renal): > 100 µM | TGI (TK-10 renal): > 100 µM | GI50 (SN12C renal): > 100 µM | TGI (SN12C renal): > 100 µM | GI50 (HCT-15 colon): 70.6 µM | TGI (HCT-15 colon): > 100 µM | GI50 (HL-60(TB) leukemia): 4.25 µM | TGI (HL-60(TB) leukemia): 8.46 µM | GI50 (MOLT-4 leukemia): 1.74 µM | TGI (MOLT-4 leukemia): 3.53 µM | GI50 (MALME-3M melanoma): 3.77 µM | TGI (MALME-3M melanoma): 13.3 µM | GI50 (SK-MEL-5 melanoma): 3.52 µM | TGI (SK-MEL-5 melanoma): 47 µM | GI50 (NCI/ADR-RES ovarian): > 100 µM | TGI (NCI/ADR-RES ovarian): > 100 µM | GI50 (SK-OV-3 ovarian): > 100 µM | TGI (SK-OV-3 ovarian): > 100 µM | GI50 (LOX IMVI melanoma): 20.7 µM | TGI (LOX IMVI melanoma): > 100 µM | GI50 (NCI-H226 lung): 3.04 µM | TGI (NCI-H226 lung): > 100 µM | GI50 (OVCAR-4 ovarian): > 100 µM | TGI (OVCAR-4 ovarian): > 100 µM | GI50 (SK-MEL-28 melanoma): 3 µM | TGI (SK-MEL-28 melanoma): 7.53 µM | GI50 (SW-620 colon): > 100 µM | TGI (SW-620 colon): > 100 µM | GI50 (MDA-MB-435 melanoma): > 100 µM | TGI (MDA-MB-435 melanoma): > 100 µM | GI50 (SF-295 CNS): 2.34 µM | TGI (SF-295 CNS): 14.3 µM | GI50 ([…]-0 renal): 1.61 µM | TGI (786-0 renal): 3.83 µM | GI50 (HCT-116 colon): 77 µM | TGI (HCT-116 colon): > 100 µM | GI50 (EKVX NSCLC): 84 µM | TGI (EKVX NSCLC): > 100 µM | GI50 (SNB-75 CNS): 3.2 µM | TGI (SNB-75 CNS): > 100 µM | GI50 (OVCAR-3 ovarian): > 100 µM | TGI (OVCAR-3 ovarian): > 100 µM | GI50 (DU-145 prostate): > 100 µM | TGI (DU-145 prostate): > 100 µM | GI50 (UACC-257 melanoma): 4.3 µM | TGI (UACC-257 melanoma): > 100 µM | GI50 (A549 NSCLC): > 100 µM | TGI (A549 NSCLC): > 100 µM | GI50 (OVCAR-5 ovarian): > 100 µM | TGI (OVCAR-5 ovarian): > 100 µM | GI50 (HT29 colon): 4.93 µM | TGI (HT29 colon): 53.3 µM | GI50 (BT-549 breast): 2.85 µM | TGI (BT-549 breast): > 100 µM | GI50 (T-47D breast): 3.1 µM | TGI (T-47D breast): 32.5 µM | GI50 (CCRF-CEM leukemia): 4.41 µM | TGI (CCRF-CEM leukemia): > 100 µM | GI50 (SNB-19 CNS): 5.14 µM | TGI (SNB-19 CNS): > 100 µM | GI50 (KM12 colon): 0.452 µM | TGI (KM12 colon): > 100 µM | GI50 (U251 glioblastoma): 7.1 µM | TGI (U251 glioblastoma): 60.7 µM | GI50 (NCI-H522 lung): 17.7 µM | TGI (NCI-H522 lung): > 100 µM | GI50 (PC-3 prostate): > 100 µM | TGI (PC-3 prostate): > 100 µM | GI50 (CAKI-1 renal): 22.6 µM | TGI (CAKI-1 renal): > 100 µM | GI50 (SF-539 CNS): 4.86 µM | TGI (SF-539 CNS): > 100 µM | GI50 (IGROV1 ovarian): > 100 µM | TGI (IGROV1 ovarian): > 100 µM | GI50 (RPMI-8226 leukemia): 1.18 µM | TGI (RPMI-8226 leukemia): 2.58 µM | GI50 (NCI-H460 NSCLC): 5 µM | TGI (NCI-H460 NSCLC): > 100 µM | GI50 (HOP-92 NSCLC): 5.22 µM | TGI (HOP-92 NSCLC): > 100 µM | GI50 (M14 melanoma): > 100 µM | TGI (M14 melanoma): > 100 µM | GI50 (RXF 393 renal): 0.606 µM | TGI (RXF 393 renal): 2.18 µM | GI50 (UACC-62 melanoma): 4.58 µM | TGI (UACC-62 melanoma): 42.3 µM | GI50 (HS 578T breast): 2.31 µM | TGI (HS 578T breast): 5.35 µM | GI50 (NCI-H322M lung): 42.9 µM | TGI (NCI-H322M lung): > 100 µM | GI50 (SF-268 CNS): 2.71 µM | TGI (SF-268 CNS): 7 µM | GI50 (MCF7 breast): 5.39 µM | TGI (MCF7 breast): > 100 µM | GI50 (OVCAR-8 ovarian): > 100 µM | TGI (OVCAR-8 ovarian): > 100 µM | GI50 (HOP-62 NSCLC): 7.49 µM | TGI (HOP-62 NSCLC): > 100 µM | GI50 (UO-31 renal): > 100 µM | TGI (UO-31 renal): > 100 µM | GI50 (ACHN renal): > 100 µM | TGI (ACHN renal): > 100 µM | GI50 (HCC-2998 colon): 5.29 µM | TGI (HCC-2998 colon): 34.7 µM | GI50 (NCI-H23 lung): 13 µM | TGI (NCI-H23 lung): > 100 µM | GI50 (MDA-MB-231 breast): 3.73 µM | TGI (MDA-MB-231 breast): > 100 µM

Source: PubChem BioAssay (NCI)
